In US10508086B2 (CANCER RESEARCH TECHNOLOGY LIMITED, priority 2014, dated 2019):
Read-outs that look alike come from different tables or passages of the source.

What was measured:
PARG in HeLa cell line = PARG in HeLa cell line (Homo sapiens (Human), UniProt Q86W56); experiment: PARG cell assay (nuclear PAR chains after MMS, immunofluorescence); type: cell-based
Experimental: This method is based on the detection of endogenous levels of poly (ADP) ribose chains present in the nucleus of HeLa cell line using indirect immunofluorescence. MMS stimulation increases PAR chains for up to 25 mins. After that point, PARG is active and breaks down the PAR chains, until by one hour after stimulation no PAR chains are detectable. Inhibition of PARG maintains PAR chains.
Briefly, following compound treatment and treatment with the DNA damaging agent methylmethanesulfonate (MMS), the cell monolayer is fixed, then permeabilised and incubated with a mouse monoclonal antibody raised against multimers of poly(ADP) ribose. After an overnight incubation, excess antibody is removed by washing and an Alexafluor 488-linked secondary antibody which recognises the mouse monoclonal is added together with a nuclear stain (Hoechst 33342). Images of the cells are then captured and analysed on a High Content Screening platform and the total intensity of the nuclear fluorescent signal at […] is quantified.
HeLa cells, seeded in 384-well plates, at 4000/well in 30 μL RPMI 1640 media, supplemented with 10% FBS and 2 mM Glutamax, were incubated overnight at 37° C., 5% CO2.
The following day, cells were dosed in quadruplicate with compound (10 point dose response) and incubated for 1 h at 37° C., 5% CO2.
At the end of the 1 h dosing period, MMS was added to duplicates at a final concentration of 50 μg/mL, for a further hour.
Media was tipped off and the cells fixed with 50 μL ice-cold 95% MetOH/PBS for 15 mins at −20° C. Following a PBS wash, 50 μL PBS/0.1% Triton was added to the cells for 20 mins. Following another PBS wash, anti-PAR antibody (Calbiochem AM80) was diluted 1:4000 in a buffer (PBS+0.5% FBS+0.05% Tween20) and added to the cells and incubated overnight at 4° C.
The following day, cells were washed three times with PBS and then incubated for 1 hr with secondary antibody (Alexa Fluor® 488 goat anti mouse IgG (H+L)) diluted 1:1000 and Hoechst diluted 1:5000 in buffer (5% FBS in PBS+0.05% Tween20).
Cells were washed three times with PBS and the plate sealed with a light-proof seal.
Images of the cells were captured on a ThermoFisher Celllnsight and the mean total intensity of spots fluorescent at 485 nm in the nucleus was reported.

Human Full Length PARG = Human Full Length PARG (Homo sapiens (Human), UniProt Q86W56); experiment: PARG in vitro enzyme assay (TR-FRET); type: biochemical; conditions: read-out: PARG_EC50_ENZYME
Experimental: PARG In vitro assays were conducted in a total volume of 15 ul in a standard 384 well format. 5 ul of Human Full Length PARG (Produced internally by Astra Zeneca), used at a final reaction concentration of […], was added to 5 ul of Ribosylated PARP substrate (also produced internally by Astra Zeneca) at final reaction concentration of 4.5 nM in assay buffer (50 mM Tris pH7.4, 0.1 mg/ml BSA, 3 mM EDTA, 0.4 mM EGTA, 1 mM DTT, 0.01% Tween 20, 50 mM KCl). The reaction was incubated at room temperature for 10 minutes and then 5 ul detection reagent was added. Detection Reagent consists of 42 nM MAb Anti-6HIS XL665 (CisBio: 61 HISXLB) and 2.25 nM Streptavidin Europium Cryptate (CisBio: 610SAKLB), both at 3× working stock concentrations (final concentrations of 14 nM and 0.75 nM respectively), in a detection buffer of 50 mM Tris pH7.4, BSA at 0.1 mg/ml and KF at 100 mM. Following incubation at room temperature for 60 minutes in the dark, TR-FRET signal was measured at Ex 340 and Em 665 and Em 620. A ratio was calculated as Em665/EM620×104 for each well and used to calculate percent inhibition for test compounds.

[1] = HeLa cells, MMS 50 μg/mL, read-out: PARG Cell IC50 Geomean

Sequence of PARG in HeLa cell line (Q86W56 whole entry): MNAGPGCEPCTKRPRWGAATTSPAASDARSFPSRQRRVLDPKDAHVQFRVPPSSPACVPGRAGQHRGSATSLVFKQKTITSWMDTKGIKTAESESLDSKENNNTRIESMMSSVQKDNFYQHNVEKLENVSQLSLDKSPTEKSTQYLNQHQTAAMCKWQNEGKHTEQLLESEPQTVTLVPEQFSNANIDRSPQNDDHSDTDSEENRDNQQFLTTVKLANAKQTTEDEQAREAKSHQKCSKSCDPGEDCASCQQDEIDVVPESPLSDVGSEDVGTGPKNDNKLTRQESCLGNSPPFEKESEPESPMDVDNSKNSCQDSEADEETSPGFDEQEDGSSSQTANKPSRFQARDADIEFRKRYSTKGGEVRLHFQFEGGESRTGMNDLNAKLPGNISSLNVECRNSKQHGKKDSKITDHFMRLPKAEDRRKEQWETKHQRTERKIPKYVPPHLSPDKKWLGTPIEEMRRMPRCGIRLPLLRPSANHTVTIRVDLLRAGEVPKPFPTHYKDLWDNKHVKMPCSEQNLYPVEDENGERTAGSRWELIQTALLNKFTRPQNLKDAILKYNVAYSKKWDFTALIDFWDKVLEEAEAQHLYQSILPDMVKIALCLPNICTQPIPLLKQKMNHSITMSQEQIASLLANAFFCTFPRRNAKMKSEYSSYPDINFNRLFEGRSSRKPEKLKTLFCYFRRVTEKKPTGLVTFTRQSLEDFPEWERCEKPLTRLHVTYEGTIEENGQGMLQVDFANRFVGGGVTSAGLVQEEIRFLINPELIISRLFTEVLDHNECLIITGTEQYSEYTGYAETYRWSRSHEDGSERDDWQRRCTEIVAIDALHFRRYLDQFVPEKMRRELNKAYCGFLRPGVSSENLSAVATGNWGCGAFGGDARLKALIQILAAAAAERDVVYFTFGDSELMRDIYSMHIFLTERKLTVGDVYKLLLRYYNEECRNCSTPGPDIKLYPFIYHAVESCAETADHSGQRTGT
Sequence of Human Full Length PARG (Q86W56 whole entry): as above

Row | SMILES | IC50 (PARG in HeLa cell line; [1]) | EC50 (Human Full Length PARG) | IC50 (PARG in HeLa cell line)
1 | Cc1cc(Cn2c(=O)n(-c3nnc(C)s3)c3cc(S(=O)(=O)NC4(C)CC4)ccc32)n(C)n1 [Example 84] | 271 nM | 359 nM | 
2 | COc1ccc(Cn2c(=O)n(-c3nnc(C)s3)c3cc(S(=O)(=O)NC4(C)CC4)ccc32)cc1 [Example 86] | 277 nM | 403 nM | 
3 | Cn1c(=O)n(-c2ncns2)c2cc(S(=O)(=O)NC3(C)CC3)ccc21 [Example 98] | 694 nM | 359 nM | 
4 | Cc1nnc(-n2c(=O)n(Cc3sc(C)nc3C)c3ccc(S(=O)(=O)NC4(C)CC4)cc32)o1 [Example 99] | 342 nM | 202 nM | 
5 | C#CCn1c(=O)n(-c2nnc(C)s2)c2cc(S(=O)(=O)NC3(C)CC3)ccc21 [Example 100] | 194 nM | 265 nM | 
6 | Cc1nnc(-n2c(=O)n(Cc3ncco3)c3ccc(S(=O)(=O)NC4(C)CC4)cc32)s1 [Example 101] | 390 nM | 246 nM | 
7 | Cc1ccc(Cn2c(=O)n(-c3nnc(C)s3)c3cc(S(=O)(=O)NC4(C)CC4)ccc32)o1 [Example 103] | 221 nM | 284 nM | 
8 | Cc1ccc(Cn2c(=O)n(-c3nnc(C)s3)c3cc(S(=O)(=O)NC4(C)CC4)ccc32)s1 [Example 104] | 245 nM | 280 nM | 
9 | COc1nsc(-n2c(=O)n(Cc3sc(C)nc3C)c3ccc(S(=O)(=O)NC4(C)CC4)cc32)n1 [Example 105] | 246 nM | 269 nM | 
10 | Cc1cnc(-n2c(=O)n(Cc3sc(C)nc3C)c3ccc(S(=O)(=O)NC4(C)CC4)cc32)s1 [Example 107] | 159 nM | 86 nM | 
11 | Cc1nc(C)c(Cn2c(=O)n(-c3nc(Br)ns3)c3cc(S(=O)(=O)NC4(C)CC4)ccc32)s1 [Example 108] | 67 nM | 69 nM | 
12 | Cc1nc(C)c(Cn2c(=O)n(-c3nccs3)c3cc(S(=O)(=O)NC4(C)CC4)ccc32)s1 [Example 111] | 507 nM | 147 nM | 
13 | CCOC(=O)n1c(=O)n(Cc2sc(C)nc2C)c2ccc(S(=O)(=O)NC3(C)CC3)cc21 [Example 112] | 850 nM | 140 nM | 
14 | Cc1nnc(-n2c(=O)n(C)c3cc(F)c(S(=O)(=O)NC4(C)CC4)cc32)s1 [Example 116, 6-Fluoro-1-methyl-N-(1-methylcyclopropyl)-3-(5-methyl-1,3,4-thiadiazol-2-yl)-2-oxo-benzimidazole-5-sulfonamide] | 197 nM | 245 nM | 
15 | CNC(=O)c1noc(Cn2c(=O)n(-c3nnc(C)o3)c3cc(S(=O)(=O)NC4(C)CC4)ccc32)n1 [Example 117] | 24700 nM | 275 nM | 
16 | Cc1nnc(-n2cc(C(=O)C3CC3)c3ccc(S(=O)(=O)NC4(C)CC4)cc32)s1 [Example 130, 3-(Cyclopropanecarbonyl)-N-(1-methylcyclopropyl)-1-(5-methyl-1,3,4-thiadiazol-2-yl) indole-6-sulfonamide] | 135 nM | 218 nM | 
17 | Cc1nnc(-n2cc(C(=O)c3ccc(F)cc3)c3ccc(S(=O)(=O)NC4(C)CC4)cc32)s1 [Example 131, 3-(4-Fluorobenzoyl)-N-(1-methylcyclopropyl)-1-(5-methyl-1,3,4-thiadiazol-2-yl)indole-6-sulfonamide] |  | 261 nM | 228 nM
18 | Cc1nnc(-n2c(=O)n(CCCN(C)C)c3ccc(S(=O)(=O)NC4(C)CC4)cc32)s1 [Example 135] | 371 nM | 512 nM | 
19 | Cc1nnc(-n2c(=O)n(CC3CCCCN3C)c3ccc(S(=O)(=O)NC4(C)CC4)cc32)s1 (centres unmarked) [Example 143] | 343 nM | 441 nM | 

Row | SMILES | IC50 (PARG in HeLa cell line; [1]) | EC50 (Human Full Length PARG) | IC50 (PARG in HeLa cell line)
20 | CC(=O)c1cn(-c2nnc(C)s2)c2cc(S(=O)(=O)NC3(C)CC3)ccc12 [Example 144, 3-Acetyl-N-(1-methylcyclopropyl)-1-(5-methyl-1,3,4-thiadiazol-2-yl)indole-6-sulfonamide] |  | 595 nM | 
21 | COCCn1c(=O)n(-c2nnc(C)s2)c2cc(S(=O)(=O)NC3(C)CC3)ccc21 [Example 147] | 437 nM | 461 nM | 
22 | COCCCn1c(=O)n(-c2nnc(C)s2)c2cc(S(=O)(=O)NC3(C)CC3)ccc21 [Example 148] | 238 nM | 373 nM | 
23 | Cc1nnc(-n2c(=O)n(CCN3CCCCC3)c3ccc(S(=O)(=O)NC4(C)CC4)cc32)s1 [Example 149] |  | 735 nM | 
24 | COCCCn1c(=O)n(-c2nnc(C)o2)c2cc(S(=O)(=O)NC3(C)CC3)ccc21 [Example 150] |  | 904 nM | 
25 | Cc1nnc(-n2c(=O)n(CCC(N)=O)c3ccc(S(=O)(=O)NC4(C)CC4)cc32)o1 [Example 151] |  | 1160 nM | 
26 | Cc1nnc(-n2c(=O)n(CCN3CCOCC3)c3ccc(S(=O)(=O)NC4(C)CC4)cc32)s1 [Example 152] | 194 nM | 275 nM | 
27 | Cc1nnc(-n2c(=O)n(CCN3CCCC3)c3ccc(S(=O)(=O)NC4(C)CC4)cc32)s1 [Example 153] |  | 1120 nM | 
28 | Cc1nnc(-n2c(=O)n(CCC(N)=O)c3ccc(S(=O)(=O)NC4(C)CC4)cc32)s1 [Example 154] | 9080 nM | 614 nM | 
29 | Cc1nnc(-n2c(=O)n(CC3CCCN3C)c3ccc(S(=O)(=O)NC4(C)CC4)cc32)s1 (centres unmarked) [Example 155] | 166 nM | 464 nM | 
30 | Cc1nnc(-n2c(=O)n(C)c3ccc(S(=O)(=O)NC4(CF)CC4)cc32)s1 [Example 156, N-[1-(Fluoromethyl)cyclopropyl]-1-methyl-3-(5-methyl-1,3,4-thiadiazol-2-yl)-2-oxo-benzimidazole-5-sulfonamide] | 589 nM | 686 nM | 
31 | Cc1nnc(-n2c(=O)[nH]c3ccc(S(=O)(=O)NC4(C#N)CC4)cc32)s1 [Example 157, N-(1-Cyanocyclopropyl)-3-(5-methyl-1,3,4-thiadiazol-2-yl)-2-oxo-1H-benzimidazole-5-sulfonamide] | 3500 nM | 1170 nM | 
32 | CCn1c(=O)n(-c2nnc(C)s2)c2cc(S(=O)(=O)NC3(C#N)CC3)ccc21 [Example 158, N-(1-Cyanocyclopropyl)-1-ethyl-3-(5-methyl-1,3,4-thiadiazol-2-yl)-2-oxo-benzimidazole-5-sulfonamide] | 486 nM | 1040 nM | 
33 | CCn1c(=O)n(-c2nnc(C)s2)c2cc(S(=O)(=O)NC3(CF)CC3)ccc21 [Example 159, 1-Ethyl-N-[1-(fluoromethyl)cyclopropyl]-3-(5-methyl-1,3,4-thiadiazol-2-yl)-2-oxo-benzimidazole-5-sulfonamide] | 349 nM | 590 nM | 
34 | COCCn1c(=O)n(-c2nnc(C)s2)c2cc(S(=O)(=O)NC3(CF)CC3)ccc21 [Example 160, N-[1-(Fluoromethyl)cyclopropyl]-1-(2-methoxyethyl)-3-(5-methyl-1,3,4-thiadiazol-2-yl)-2-oxo-benzimidazole-5-sulfonamide] | 453 nM | 616 nM | 
35 | COCCn1c(=O)n(-c2nnc(C)s2)c2cc(S(=O)(=O)NC3(C#N)CC3)ccc21 [Example 161, N-(1-Cyanocyclopropyl)-1-(2-methoxyethyl)-3-(5-methyl-1,3,4-thiadiazol-2-yl)-2-oxo-benzimidazole-5-sulfonamide] | 491 nM | 616 nM | 
36 | COCCn1c(=O)n(-c2nnc(C(F)F)s2)c2cc(S(=O)(=O)NC3(C#N)CC3)ccc21 [Example 162, N-(1-Cyanocyclopropyl)-3-[5-(difluoromethyl)-1,3,4-thiadiazol-2-yl]-1-(2-methoxyethyl)-2-oxo-benzimidazole-5-sulfonamide] | 176 nM | 260 nM | 
37 | Cc1nsc(-n2c(=O)n(C)c3ccc(S(=O)(=O)NC4(CF)CC4)cc32)n1 [Example 177] | 2540 nM |  | 
